The record followed here is patent US20240190896A1, “SMTP-7 DERIVATIVE AND USE THEREOF” (Shanghai Senhui Medicine Co., Ltd., priority 2021, published 2024).

One may read the AUC(0-t) as the area under the concentration-time curve up to a stated or last time point. Read a high AUC(0-t) as high exposure. One may read the Cmax as the peak of the concentration-time curve. A word on the Tmax: it is the time from dosing to the highest level. One may read the half-life as the time in which the quantity being followed falls by half. A low value points to rapid decline.

A short description of data set [1]: Test Example 1: Pharmacokinetic study in rats (intravenous). Format: in vivo. To be noted: rat, SD rats, 5 mg/kg intravenous injection, plasma; for MRT last: read-out: MRT(0-t). On the procedure:
A proper amount of each of SMTP-7 and compound 1 was weighed out, and 2% (final volume) DMSO and 98% (final volume) normal saline were added. After they were well mixed by vortexing and ultrasonication, a 1 mg/mL clear solution was obtained for later use.
SD Rats, at the Age of 6-8 Weeks, Weighing about 180-220 g.
About 0.20 mL of blood was collected for each sample via the jugular vein or other suitable is routes, and sodium heparin was used as the anticoagulant. The blood was placed on ice immediately after the collection. The collection was performed at a total of 10 time points: before administration, and 5 min, 0.25 h, 0.5 h, 1 h, 2 h, 4 h, 6 h, 10 h and 24 h after administration. The collected blood samples were placed in heparin anticoagulant blood collection tubes and centrifuged at 6800 g at 2-8° C. for 6 min to separate plasma. The plasma samples were stored in a freezer at −80° C. before analysis.
The plasma concentration of each test compound was determined. The analysis of quality control samples was performed while the samples were analyzed, and more than 66.7% of the quality control samples were required to have an accuracy of 80-120%.
When plasma drug concentration-time curves were plotted, BLQ was recorded as 0. When the pharmacokinetic parameters were calculated, the concentration before administration was calculated as 0; BLQ before Cmax (including “No peak”) was calculated as 0; and BLQ that occurs after Cmax (including “No peak”) was excluded from the calculation. The following pharmacokinetic parameters were calculated from the plasma concentration data of different time points using the non-compartmental analysis method of Phoenix WinNonlin 7.0 software: AUC(0−t), AUC(0−∞), T1/2, MRT, Cmax, Tmax, etc.

Data set [2] can be described thus: Test Example 2: Pharmacokinetic study in rats (intravenous). The note with it: 5 mg/kg intravenous administration. Type of data set: in vivo, SD rats. On the procedure:
After they were well mixed by vortexing and ultrasonication, a 1 mg/mL clear solution was obtained for later use.
SD Rats, at the Age of 6-8 Weeks, Weighing about 180-240 g.
The pharmacokinetic parameters such as AUC(0−t), AUC(0−∞), T1/2, MRT, Cmax and Tmax were measured in rats according to the method of Test Example 1.

For `[2H]C([2H])(CC[C@@H](C(=O)O)N1Cc2c(cc(O)c3c2O[C@@](C)(CC/C=C(\C)CCC=C(C)C)[C@@H](O)C3)C1=O)N1Cc2c(cc(O)c3c2O[C@@](C)(CC/C=C(\C)CCC=C(C)C)[C@@H](O)C3)C1=O` [Compound 1, δ-Deutero SMTP-7], in data set [1], the AUC(0-t) stood at 11300 ng·h/mL, the Cmax is 19100 ng/mL, the Tmax stood at 4.8 min and the half-life was 8.94 ± 0.61 h. The MRT last in data set [1] was determined as 3.06 ± 0.25 h.

Regarding `[2H][C@](CCCN1Cc2c(cc(O)c3c2O[C@@](C)(CC/C=C(\C)CCC=C(C)C)[C@@H](O)C3)C1=O)(C(=O)O)N1Cc2c(cc(O)c3c2O[C@@](C)(CC/C=C(\C)CCC=C(C)C)[C@@H](O)C3)C1=O` [Compound 2, α-Deutero SMTP-7], in data set [2], the “AUC (comparison in words)” value is on record as “did not greatly differ” and the “T1/2 (comparison in words)” value is reported as “did not greatly differ”.

For `[2H]C([2H])(CCN1Cc2c(cc(O)c3c2O[C@@](C)(CC/C=C(\C)CCC=C(C)C)[C@@H](O)C3)C1=O)[C@@H](C(=O)O)N1Cc2c(cc(O)c3c2O[C@@](C)(CC/C=C(\C)CCC=C(C)C)[C@@H](O)C3)C1=O` [Compound 3, β-Deutero SMTP-7], in data set [2], the “AUC (comparison in words)” value is “did not greatly differ” and the “T1/2 (comparison in words)” value is “did not greatly differ”.

As for `[2H]C([2H])(C[C@@H](C(=O)O)N1Cc2c(cc(O)c3c2O[C@@](C)(CC/C=C(\C)CCC=C(C)C)[C@@H](O)C3)C1=O)CN1Cc2c(cc(O)c3c2O[C@@](C)(CC/C=C(\C)CCC=C(C)C)[C@@H](O)C3)C1=O` [Compound 4, γ-Deutero SMTP-7], in data set [2], the “AUC (comparison in words)” value is reported as “lower AUC than SMTP-7” and the “T1/2 (comparison in words)” value is “lower T1/2”.

Turning to `CC(C)=CCC/C(C)=C/CC[C@]1(C)Oc2c(c(O)cc3c2CN(CCC[C@@H](C(=O)O)N2Cc4c(cc(O)c5c4O[C@@](C)(CC/C=C(\C)CCC=C(C)C)[C@@H](O)C5)C2=O)C3=O)C[C@@H]1O` [SMTP-7, Stachybotrys microspore triprenyl phenol-7], in data set [2], the “AUC (comparison in words)” value was “did not greatly differ” and the “T1/2 (comparison in words)” value is given as “did not greatly differ”. For the same compound, in data set [1], the AUC(0-t) worked out at 8010 ng·h/mL, the Cmax stood at 26300 ng/mL, the Tmax is 4.8 min and the half-life is 6.69 ± 0.178 h. Moreover, in data set [1], the MRT last was determined as 0.465 ± 0.08 h.
